Source: patent publication EP0819689A1, “5-substituted (2H) chromenes” (Byk Gulden Lomberg Chemische Fabrik GmbH, priority 1996, dated 1998)

Tested on: PDE IV
Assay: Inhibition of PDE IV activity (method of Bauer and Schwabe, adapted to microtitre plates)
Format: biochemical
Settings: Hemmung der PDE IV-Aktivität
From the text: Der Aktivitätstest wurde nach der Methode von Bauer und Schwabe durchgeführt, die auf Mikrotiterplatten adaptiert wurde (Naunyn-Schmiedeberg's Arch. Pharmacol. 1980, 311, 193-198). Hierbei erfolgt im ersten Schritt die PDE-Reaktion. In einem zweiten Schritt wird das entstandene 5'-Nukleotid durch eine 5'-Nukleotidase des Schlangengiftes von ophiophagus hannah (King Cobra) zum ungeladenen Nukleosid gespalten. Im dritten Schritt wird das Nukleosid auf Ionenaustauschsäulen vom verbliebenen geladenen Substrat getrennt. Die Säulen werden mit 2 ml 30 mM Ammoniumformiat (pH 6,0) direkt in Minivials eluiert, in die noch 2 ml Szintillatorflüssigkeit zur Zählung gegeben wird.
Die für die erfindungsgemäßen Verbindungen ermittelten Hemmwerte ergeben sich aus der folgenden Tabelle A, in der die Nummern der Verbindungen den Nummern der Beispiele entsprechen. Tabelle A

Row | Compound | PDE 4 -logIC50
1 | COc1ccc(C(O)Cc2ccncc2)c2c1OC1(C=C2)CCCC1 (racemic) [Verbindung 1, (±)-Spiro{5-[1-Hydroxy-2-(pyrid-4-yl)ethyl]-8-methoxy-[2H]chromen-2,1'-Cyclopentan}] | 5,88
2 | COc1ccc(CC(C#N)c2ccncc2)c2c1OC1(CCCC1)CC2 (racemic) [Verbindung 8, (±)-Spiro{5-[2-Cyano-2-(pyrid-4-yl)ethyl]-8-methoxychroman}] | 6,95
3 | COc1ccc(CC(C#N)c2ccncc2)c2c1OC(C)(C)CC2 (racemic) [Verbindung 9, (±)-5-[2-Cyano-2-(pyrid-4-yl)ethyl]-8-methoxy-2,2-dimethylchroman] | 7,01
4 | COc1ccc(CC(C#N)c2ccccn2)c2c1OC(C)(C)CC2 (racemic) [Verbindung 10, (±)-5-[2-Cyano-2-(pyrid-2-yl)ethyl]-8-methoxy-2,2-dimethylchroman] | 6,76
5 | COc1ccc(/C=C/c2ccncc2)c2c1OC1(C=C2)CCCC1 [Verbindung 2, (E)-Spiro{5-[2-(pyrid-4-yl)ethenyl]-8-methoxy-[2H]chromen-2,1'-Cyclopentan}] | 7,10
6 | COc1ccc(CCc2ccncc2)c2c1OC1(CCCC1)CC2 [Verbindung 3, Spiro{5-[2-(pyrid-4-yl)ethyl]-8-methoxychroman-2.1'-Cyclopentan}] | 7,59
7 | COc1ccc(/C=C(\C#N)c2ccncc2)c2c1OC1(C=C2)CCCC1 [Verbindung 4, (Z)-Spiro{5-[2-Cyano-2-(pyrid-4-yl)ethenyl]-8-methoxy-[2H]chromen-2.1'-Cyclopentan}] | 6,12
8 | COc1ccc(/C=C(\C#N)c2ccncc2)c2c1OC(C)(C)C=C2 [Verbindung 5, (Z)-5-[2-Cyano-2-(pyrid-4-yl)ethenyl]-8-methoxy-2,2-dimethyl-[2H]chromen] | 6,73
9 | COc1ccc(/C=C(\C#N)c2cccnc2)c2c1OC(C)(C)C=C2 [Verbindung 6, (Z)-5-[2-Cyano-2-(pyrid-3-yl)ethenyl]-8-methoxy-2,2-dimethyl-[2H]chromen] | 6,36
10 | COc1ccc(/C=C(\C#N)c2ccccn2)c2c1OC(C)(C)C=C2 [Verbindung 7, (Z)-5-[2-Cyano-2-(pyrid-2-yl)ethenyl]-8-methoxy-2,2-dimethyl-[2H]chromen] | 5,95
